What follows are compounds tested against AT2 Receptor (AT2R) (Homo sapiens (Human), UniProt P50052) (assay: Measurement of inhibitory activity on AT2 receptor (Tag-lite HTRF, Tb-labeled AT2R cells, angiotensin receptor red agonist)). Settings: 1 h room temperature.
Format: binding
Protocol: Measurement of Inhibitory Activity on AT1 Receptor ([…])/AT2 Receptor (AT2R)
Through the following steps, the inhibitory activity of the compound on AT1R/AT2R (IC50 value) was determined:
1) An appropriate amount of 1×TLB (Tag-lite Buffer) was prepared and well mixed for use.
2) The compound was diluted by 10 times with ddH2O or DMSO. The compound was then dilute to 4 times of the working concentration with 1×TLB and mixed well for use.
3) 8600 nM Tag-lite angiotensin receptor red agonist was diluted to 12 nM (4×Kd) with 1×TLB.
4) 5 ml 1×TLB was taken into a 15 ml centrifuge tube.
5) After thawing 1 tube of Tb-labeled AT1R/AT2R cells in a 37° C. water bath, the cells were quickly transferred to the 1×TLB in step 4), mixed gently, and centrifuged at 1200 g for 5 minutes at room temperature.
6) The supernatant was aspirated gently, and the cells were resuspended and mixed in 2.7 ml 1×TLB, and then placed at room temperature until use.
7) 10 μl cells were added to all test wells, and 5 μl 4× working solution of the compound from step 2) was added to the corresponding test wells. 5 μl 4× Tag-lite angiotensin receptor red agonist well diluted in step 3) was added to all test wells.
8) After leaving the reaction plate at room temperature for 1 h, data were measured and analyzed using Envision HTRF Reader, and the half inhibitory concentration (IC50) of the compound on AT1R/AT2R was calculated with the GraphPad Prism four-parameter equation.

Sequence of AT2 Receptor (AT2R) (P50052 whole entry): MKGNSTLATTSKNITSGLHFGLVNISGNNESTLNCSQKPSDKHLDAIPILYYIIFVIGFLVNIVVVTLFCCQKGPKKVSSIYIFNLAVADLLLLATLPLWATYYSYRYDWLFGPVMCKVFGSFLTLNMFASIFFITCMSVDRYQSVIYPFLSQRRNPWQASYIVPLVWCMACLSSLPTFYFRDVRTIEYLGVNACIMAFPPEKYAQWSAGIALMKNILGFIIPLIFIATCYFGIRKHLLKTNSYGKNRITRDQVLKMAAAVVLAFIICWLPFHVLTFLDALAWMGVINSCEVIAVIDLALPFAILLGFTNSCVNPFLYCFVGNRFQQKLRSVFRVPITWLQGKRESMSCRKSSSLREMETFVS

| SMILES | IC50 [nM] |
| --- | --- |
| O=C(O)[C@@H]1[C@H]2CC[C@@H](CN1C(=O)N(c1ccccc1)c1ccccc1)N2C(=O)N(Cc1ccccc1)Cc1ccccc1 [Compound C133, (1R,2S,5S)-8-(dibenzylcarbamoyl)-3-(diphenylcarbamoyl)-3,8-diazabicyclo[3.2.1] octane-2-carboxylic acid] | 243 |
| O=C(O)[C@@H]1[C@H]2CC[C@@H](CN1C(=O)N(c1ccccc1)c1ccccc1)N2C(=O)N(Cc1ccccc1)c1ccccc1 [Compound C134, (1R,2S,5S)-8-(benzyl(phenyl)carbamoyl)-3-(diphenylcarbamoyl)-3,8-diazabicyclo [3.2.1]octane-2-carboxylic acid] | 322 |
| O=C(O)[C@@H]1[C@H]2CC[C@@H](CN1C(=O)N(c1ccccc1)c1ccccc1)N2C(=O)N1CCCC1c1ccccc1 (stereo partly drawn) [Compound C138, (1R,2S,5S)-3-(diphenylcarbamoyl)-8-(2-phenylpyrrolidine-1-carbonyl)-3,8-diazabicyclo[3.2.1] octane-2-carboxylic acid] | 11.7 |
| O=C(O)[C@@H]1[C@H]2CC[C@@H](CN1C(=O)N(c1ccccc1)c1ccccc1)N2C(=O)N1CCC[C@@H]1c1ccccc1 [Compound C140, (1R,2S,5S)-3-(diphenylcarbamoyl)-8-((R)-2-phenylpyrrolidine-1-carbonyl)-3,8-diazabicyclo [3.2.1]octane-2-carboxylic acid] | 5.49 |
| O=C(O)[C@@H]1[C@H]2CC[C@@H](CN1C(=O)N(c1ccccc1)c1ccccc1)N2C(=O)N1CCC[C@@H]1c1cc(F)ccc1F [Compound C141, (1R,2S,5S)-8-((R)-2-(2,5-difluorophenyl)pyrrolidine-1-carbonyl)-3-(diphenylcarbamoyl)-3,8-diazabicyclo [3.2.1]octane-2-carboxylic acid] | 7.99 |
| O=C(O)[C@@H]1[C@H]2CC[C@@H](CN1C(=O)N(c1ccccc1)c1ccccc1)N2C(=O)N1CCC[C@H]1c1cc(F)ccc1F [Compound C142, (1R,2S,5S)-8-((S)-2-(2,5-difluorophenyl)pyrrolidine-1-carbonyl)-3-(diphenylcarbamoyl)-3,8-diazabicyclo [3.2.1]octane-2-carboxylic acid] | 654 |
| Cc1ccc([C@H]2CCCN2C(=O)N2[C@H]3CC[C@@H]2[C@@H](C(=O)O)N(C(=O)N(c2ccccc2)c2ccccc2)C3)cc1 [Compound C143, (1R,2S,5S)-3-(diphenylcarbamoyl)-8-((R)-2-(p-tolyl)pyrrolidine-1-carbonyl)-3,8-diazabicyclo [3.2.1]octane-2-carboxylic acid] | 9.97 |
| O=C(O)[C@@H]1[C@H]2CC[C@@H](CN1C(=O)N(c1ccccc1)c1ccccc1)N2C(=O)N(c1ccc(F)cc1)c1ccc(F)cc1 [Compound C145, (1R,2S,5S)-8-(bis(4-fluorophenyl)carbamoyl)-3-(diphenylcarbamoyl)-3,8-diazabicyclo [3.2.1]octane-2-carboxylic acid] | 110 |
| O=C(O)[C@@H]1[C@H]2CC[C@@H](CN1C(=O)N(c1ccccc1)c1ccccc1)N2C(=O)N1CCCCC1c1ccccc1 (stereo partly drawn) [Compound C146, (1R,2S,5S)-3-(diphenylcarbamoyl)-8-(2-phenylpiperidine-1-carbonyl)-3,8-diazabicyclo [3.2.1]octane-2-carboxylic acid] | 14 |
| CN(CC1CCCCC1)C(=O)N1[C@H]2CC[C@@H]1[C@@H](C(=O)O)N(C(=O)N(c1ccccc1)c1ccccc1)C2 [Compound C147, (1R,2S,5S)-8-((cyclohexylmethyl) (methyl)carbamoyl)-3-(diphenylcarbamoyl)-3,8-diazabicyclo [3.2.1]octane-2-carboxylic acid] | 111 |
| CN(Cc1cccc(Cl)c1)C(=O)N1[C@H]2CC[C@@H]1[C@@H](C(=O)O)N(C(=O)N(c1ccccc1)c1ccccc1)C2 [Compound C151, (1R,2S,5S)-8-((3-chlorobenzyl) (methyl)carbamoyl)-3-(diphenylcarbamoyl)-3,8-diazabicyclo [3.2.1]octane-2-carboxylic acid] | 74.3 |
| CC(C)N(Cc1ccccc1)C(=O)N1[C@H]2CC[C@@H]1[C@@H](C(=O)O)N(C(=O)N(c1ccccc1)c1ccccc1)C2 [Compound C152, (1R,2S,5S)-8-(benzyl (isopropyl)carbamoyl)-3-(diphenylcarbamoyl)-3,8-diazabicyclo [3.2.1]octane-2-carboxylic acid] | 47.4 |
| O=C(O)[C@@H]1[C@H]2CC[C@@H](CN1C(=O)N(c1ccccc1)c1ccccc1)N2C(=O)N(Cc1ccccc1)C1CC1 [Compound C153, (1R,2S,5S)-8-(benzyl (cyclopropyl)carbamoyl)-3-(diphenylcarbamoyl)-3,8-diazabicyclo [3.2.1]octane-2-carboxylic acid] | 2.78 |
| O=C(O)[C@@H]1[C@H]2CC[C@@H](CN1C(=O)N(c1ccccc1)c1ccccc1)N2C(=O)N(Cc1ccccc1)CC1CC1 [Compound C154, (1R,2S,5S)-8-(benzyl (cyclopropylmethyl)carbamoyl)-3-(diphenylcarbamoyl)-3,8-diazabicyclo [3.2.1]octane-2-carboxylic acid] | 19.8 |
| CCN(Cc1ccccc1F)C(=O)N1[C@H]2CC[C@@H]1[C@@H](C(=O)O)N(C(=O)N(c1ccccc1)c1ccccc1)C2 [Compound C156, (1R,2S,5S)-3-(diphenylcarbamoyl)-8-(ethyl(2-fluorobenzyl)carbamoyl)-3,8-diazabicyclo [3.2.1]octane-2-carboxylic acid] | 10.1 |
| CN(Cc1ccc(F)cc1)C(=O)N1[C@H]2CC[C@@H]1[C@@H](C(=O)O)N(C(=O)N(c1ccccc1)c1ccccc1)C2 [Compound C161, (1R,2S,5S)-3-(diphenylcarbamoyl)-8-((4-fluorobenzyl) (methyl)carbamoyl)-3,8-thazabicyclo [3.2.1]octane-2-carboxylic acid] | 30.5 |
| Cc1ccccc1CN(C)C(=O)N1[C@H]2CC[C@@H]1[C@@H](C(=O)O)N(C(=O)N(c1ccccc1)c1ccccc1)C2 [Compound C163, (1R,2S,5S)-3-(diphenylcarbamoyl)-8-(methyl (2-methylbenzyl)carbamoyl)-3,8-diazabicyclo [3.2.1]octane-2-carboxylic acid] | 65.6 |
| CCc1ccc(CN(C)C(=O)N2[C@H]3CC[C@@H]2[C@@H](C(=O)O)N(C(=O)N(c2ccccc2)c2ccccc2)C3)cc1 [Compound C164, (1R,2S,5S)-3-(diphenylcarbamoyl)-8-((4-ethylbenzyl) (methyl)carbamoyl)-3,8-diazabicyclo[3.2.1] octane-2-carboxylic acid] | 4.35 |
| CN(Cc1ccc(Br)cc1)C(=O)N1[C@H]2CC[C@@H]1[C@@H](C(=O)O)N(C(=O)N(c1ccccc1)c1ccccc1)C2 [Compound C165, (1R,2S,5S)-8-((4-bromobenzyl) (methyl)carbamoyl)-3-(diphenylcarbamoyl)-3,8-diazabicyclo [3.2.1]octane-2-carboxylic acid] | 14 |
| CN(Cc1ccc(C(F)(F)F)cc1)C(=O)N1[C@H]2CC[C@@H]1[C@@H](C(=O)O)N(C(=O)N(c1ccccc1)c1ccccc1)C2 [Compound C169] | 7.26 |
| C=Cc1ccc(CN(C)C(=O)N2[C@H]3CC[C@@H]2[C@@H](C(=O)O)N(C(=O)N(c2ccccc2)c2ccccc2)C3)cc1 [Compound C170, (1R,2S,5S)-3-(diphenylcarbamoyl)-8-(methyl(4-vinylbenzyl)carbamoyl)-3,8-diazabicyclo[3.2.1] octane-2-carboxylic acid] | 3.87 |
| C#Cc1ccc(CN(C)C(=O)N2[C@H]3CC[C@@H]2[C@@H](C(=O)O)N(C(=O)N(c2ccccc2)c2ccccc2)C3)cc1 [Compound C171, (1R,2S,5S)-3-(diphenylcarbamoyl)-8-((4-ethynylbenzyl) (methyl)carbamoyl)-3,8-diazabicyclo [3.2.1]octane-2-carboxylic acid] | 19.2 |
| CN(Cc1ccccc1)C(=O)N1[C@H]2CC[C@@H]1[C@@H](C(=O)O)N(C(=O)C(C)(c1ccccc1)c1ccccc1)C2 [Compound C173, (1R,2S,5S)-8-(benzyl(methyl)carbamoyl)-3-(2,2-diphenylpropionyl)-3,8-diazabicyclo [3.2.1]octane-2-carboxylic acid] | 5.57 |
| O=C(O)[C@@H]1[C@H]2CC[C@@H](CN1C(=O)N(c1ccccc1)c1ccccc1)N2C(=O)/C=C/c1ccccc1 [Compound C174, (1R,2S,5S)-8-cinnamoyl-3-(diphenylcarbamoyl)-3,8-diazabicyclo [3.2.1]octane-2-carboxylic acid] | 226 |
| O=C(O)[C@@H]1[C@H]2CC[C@@H](CN1C(=O)N(c1ccccc1)c1ccccc1)N2S(=O)(=O)c1ccccc1 [Compound C182, (1R,2S,5S)-3-(diphenylcarbamoyl)-8-(phenylsulfulyl)-3,8-diazabicyclo [3.2.l]octane-2-carboxylic acid] | 432 |
| Cc1cc(CN(C)C(=O)N2[C@H]3CC[C@@H]2[C@@H](C(=O)O)N(C(=O)N(c2ccccc2)c2ccccc2)C3)cs1 [Compound C185] | 38.8 |
| CN(Cc1csc(Cl)c1)C(=O)N1[C@H]2CC[C@@H]1[C@@H](C(=O)O)N(C(=O)N(c1ccccc1)c1ccccc1)C2 [Compound C186, (1R,2S,5S)-8-(((5-chlorothiophene-3-yl)methyl) (methyl)carbamoyl)-3-(diphenylcarbamoyl)-3,8-diazabicyclo [3.2.1]octane-2-carboxylic acid] | 64.6 |

Source: patent US11453690B2, “Receptor inhibitor, pharmaceutical composition comprising same, and use thereof” (BEIJING TIDE PHARMACEUTICAL CO., LTD., priority 2018, dated 2022)
